Literature values in patent US20040024003A1, “Flat medicinal preparation for transmucosal administration of oxycodon or a comparable active ingredient in the oral cavity, for use in pain therapy and in addiction therapy” (priority 1999, published 2004).

Assays:
[1] = in vivo

Which results are given for `COc1ccc2c3c1O[C@H]1C(=O)CC[C@@]4(O)[C@@H](C2)N(C)CC[C@]314` [oxycodone]?
average duration of action [1]: 4 to 6 h; time taken to enter the blood (normal peroral administration): 15 to 30 min; bioavailable fraction following peroral administration (peroral administration): two thirds
